Converted amounts (≈) assume the structure as drawn. “And” between values parts separate entries of the source, which are not always exact repeats. Identical values can stand only once. Like-named read-outs stand apart in the source and are kept apart here.
Tests used:
CHI Log D procedure = assay type: physicochemical; details: pH 7.4, CHI Log D
Solubility in PBS = assay type: physicochemical
Procedure, shortened: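 Read-out is the HPLC peak area of the supernatant from ultracentrifuged PBS solution, scaled against a 50 μM peptide DMSO injection; value reported as [(PBS area)/(DMSO area)]*50 uM.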

[1] = biological target: T1, beta-catenin/TCF4 engagement (Homo sapiens, UniProt P35222); test: Nano-BRET target engagement assay (B-cat-Halo & TCF4-Luc in HEK293 cells); assay type: cell-based; details: for BRET % Inhibition: replicates
T1 construct: expressed in transfected cells; host or cells: HEK293
T1 sequence (P35222 1-781): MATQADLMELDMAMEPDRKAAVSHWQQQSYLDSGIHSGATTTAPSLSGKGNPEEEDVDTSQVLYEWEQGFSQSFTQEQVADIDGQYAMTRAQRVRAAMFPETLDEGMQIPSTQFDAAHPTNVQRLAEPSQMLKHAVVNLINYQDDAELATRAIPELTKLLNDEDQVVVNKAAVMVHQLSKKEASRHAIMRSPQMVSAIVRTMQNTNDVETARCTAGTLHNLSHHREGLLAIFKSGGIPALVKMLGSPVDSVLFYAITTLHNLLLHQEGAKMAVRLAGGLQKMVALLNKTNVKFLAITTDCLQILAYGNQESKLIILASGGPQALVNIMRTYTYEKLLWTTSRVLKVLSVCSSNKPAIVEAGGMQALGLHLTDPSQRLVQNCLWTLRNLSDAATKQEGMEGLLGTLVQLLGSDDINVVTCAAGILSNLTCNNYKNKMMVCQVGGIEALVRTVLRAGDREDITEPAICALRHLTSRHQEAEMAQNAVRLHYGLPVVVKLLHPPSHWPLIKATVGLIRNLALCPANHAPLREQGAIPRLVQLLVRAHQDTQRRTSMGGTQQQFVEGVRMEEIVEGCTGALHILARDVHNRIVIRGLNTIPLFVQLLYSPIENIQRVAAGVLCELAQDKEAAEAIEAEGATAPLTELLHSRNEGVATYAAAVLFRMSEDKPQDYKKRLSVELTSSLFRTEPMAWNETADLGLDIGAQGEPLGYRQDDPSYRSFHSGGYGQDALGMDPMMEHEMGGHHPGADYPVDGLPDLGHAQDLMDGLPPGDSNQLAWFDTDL

in vitro = assay type: cell-based; details: human, HEK293 cells, CTG (CellTiter Glo) Relative to Media
Procedure: (§1) On Day 3, fluorescence was read with Nano-BRET substrates. Remove plates from incubator to allow to reach to RT (30 min). Also equilibrate CTG reagent to Rm Temp. Dilute Nano-BRET substrate 1:100 in Assay media. Add 25 uL of diluted substrate to each well and shake for 30 seconds. Read on ClarioSTAR or GloMAX right away (within 10 min). Donor emission @ 460 nm. Acceptor emission @ 618 nm. Use the same plate to measure cell viability (Cell Titer-Glo-2.0 (CTG) Viability test). After reading BRET signal, add CTG reagent to each well at 1:2 ratio and shake on orbital shaker for 2 min. Incubate at Rm Temp for 10-30 min. Read luminescence on ClarioSTAR or GloMAX. Analysis was performed using Prism. Non-linear regression. Log (inhibitor) vs response—variable slope (four parameters). For CTG data linear values (not logarithmic).

HEK293 cells = test: in vitro; assay type: cell-based; details: human, 1.25 µM
Procedure: as §1

[2] = biological target: T2, full-length beta-Catenin (Uniprot ID P35222) (Homo sapiens, UniProt P35222); test: Fluorescence polarization IC50 (beta-catenin / 5FAM-TCF4 10-53 competition); assay type: binding
T2 construct: 10 nM full-length beta-Catenin (Uniprot ID P35222)
T2 sequence (P35222 1-781): T1 sequence (P35222 1-781)

[3] = test system: TCF/LEF luciferase Reporter in DLD1 cells; test: TCF reporter assay (DLD1 TCF/LEF luciferase reporter, Bright-Glo); assay type: cell-based; details: read-out: DLD1 4% Abs IC50; DLD1 4%
Procedure, shortened: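 Readouts: Bright-Glo luciferase for reporter signal and CellTiter-Glo for cell viability, with absolute IC50 derived. The reporter clone came from lentiviral TCF/LEF-luciferase transduction of DLD1 cells, seeded 5000 cells/well in RPMI with 4% FBS and exposed overnight to serially diluted compounds.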

COLO320DM cells = assay type: cell-based; details: read-out: COLO320DM Proliferation Abs IC50
Procedure, shortened: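 COLO320DM cells at 250 cells/well in RPMI-1640 + 4% HI FBS, dosed after 18–22 h with a 7-point […] 1/2 dilution series from 20 uM down to 313 nM.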

[4] = plate row B = 20 uM, integration 0.3 s, reading 1

CC(=O)N1CCC[C@]12CC=CCCCC1(CCCC=CCCCOC(=O)N3CC[C@@](C(=O)N[C@@H](Cc4ccsc4)C(=O)N[C@@H](Cc4csc5ccccc45)C(=O)N[C@@H](CCC(N)=O)C(N)=O)(C3)NC(=O)[C@H](CC(N)=O)NC(=O)[C@H](CC(=O)O)NC(=O)[C@H](C)NC(=O)[C@H](C)NC(=O)[C@H](CC(=O)O)NC(=O)[C@H](CC(=O)O)NC1=O)NC(=O)[C@H](CC(C)(C)C)NC(=O)[C@H](Cc1ccccc1)NC2=O (stereo partly drawn) [I-797, Ac-PL3-Phe-Npg-B5-Asp-Asp-Ala-Ala-Asp-Asn-PyrS2-3Thi-BztA-Gln-NH2]
chromatographic logD (CHI Log D procedure): 2.32
solubility at 15 min (Solubility in PBS; Solubility (uM)): 45 µM (≈ 86.3 µg/mL)
BRET % Inhibition ([1]; 0.625 uM): −56.5% and −6.9% and 8.3%
BRET % Inhibition ([1]; 1.25 uM): −24.8% and −1.1% and −4.0%
BRET % Inhibition ([1]; 2.5 uM): −21.3% and 26.5% and −11.7%
BRET % Inhibition ([1]; 5 uM): −16.9% and −28.4% and −18.6%
BRET % Inhibition ([1]; 10 uM): −21.7% and −21.9% and 1.7%
BRET % Inhibition ([1]; 20 uM): −36.7% and −0.3% and −19.5%
inhibition at 10 µM ([1]; HEK293, @ 10 uM, read-out: NanoBRET % inh @ 10 uM): 4.3%
BRET Acceptor 600 LP raw reading [1, 4]: 860 and 660 and 640
BRET Donor 450 BP raw reading [1, 4]: 58480 and 55870 and 47990
BRET Acceptor 600 LP raw reading ([1]; plate row D = 5 uM): 510 and 420 and 630
BRET Donor 450 BP raw reading ([1]; plate row D = 5 uM): 38850 and 29900 and 47500
BRET Donor 450 BP raw reading ([1]; plate row E = 2.5 uM): 34130 and 22720 and 40100
BRET Acceptor 600 LP raw reading ([1]; plate row G = 0.625 uM): 410 and 440 and 530
BRET Donor 450 BP raw reading ([1]; plate row G = 0.625 uM): 25180 and 35670 and 47630
IC50 ([1]; read-out: NanoBRET IC50): > 20 µM
viability at 0.625 µM (in vitro): 104%
viability at 1.25 µM (in vitro): 104%
viability at 2.5 µM (in vitro): 103%
viability at 5 µM (in vitro): 102%
viability at 10 µM (in vitro): 100%
viability at 20 µM (in vitro): 92%
CTG (CellTiter Glo) Relative to Media (HEK293 cells): 101

CC(=O)N1CCC[C@]12CC=CCCCC1(CCCC=CCCCOC(=O)N3CC[C@@](C(=O)N[C@@H](Cc4ccsc4)C(=O)N[C@@H](Cc4csc5ccccc45)C(=O)N[C@@H](CCC(N)=O)C(N)=O)(C3)NC(=O)[C@H](CC(C)C)NC(=O)[C@H](Cc3ccccc3)NC(=O)[C@H](C)NC(=O)[C@H](C)NC(=O)[C@H](CC(=O)O)NC(=O)[C@H](CC(=O)O)NC1=O)NC(=O)[C@H](CC(C)(C)C)NC(=O)[C@H](CC(=O)O)NC2=O (stereo partly drawn) [I-801, Ac-PL3-Asp-Npg-B5-Asp-Asp-Ala-Ala-Phe-Leu-PyrS2-3Thi-BztA-Gln-NH2]
IC50 ([2]; fluorescence polarization, beta-catenin, read-out: FP EC50): 0.006 µM
IC50 ([2]; read-out: beta-Catenin FP IC50): 0.007 µM
chromatographic logD (CHI Log D procedure): 2.21
Solubility (Solubility in PBS): 50 µM (≈ 95.9 µg/mL)
IC50 ([1]; read-out: NanoBRET Abs IC50): 5.8 µM
IC50 ([1]; read-out: NanoBRET IC50): 6.8 µM
IC50 [3]: 4.3 µM
IC50 (COLO320DM cells): > 20 µM

— patent US20240116985A1, “STAPLED PEPTIDES AND METHODS THEREOF” (priority 2020, published 2024)
